Values of other authors as cited in publication PMC2698789 (Pancreas, 2008).

System: sst 2 receptor

C[C@@H](O)[C@@H]1NC(=O)[C@H](CCCCN)NC(=O)[C@@H](Cc2c[nH]c3ccccc23)NC(=O)[C@H](Cc2ccccc2)NC(=O)[C@@H](NC(=O)[C@H](N)Cc2ccccc2)CSSC[C@@H](C(=O)N[C@H](CO)[C@@H](C)O)NC1=O [octreotide, Octreotide acetate]
Receptor subtype preference among somatostatin receptors sst 1–sst 5: binds preferentially to sst 2
